Test [1] has as its system peroxisome proliferator activated receptor (PPAR). Kind of test: PPAR luciferase reporter assay in stably transfected Chinese hamster ovary cells. It counts as cell-based. To be noted: about 0 to about 100 μg/mL, FIG. 5. On the procedure: Chinese hamster ovary cells were stably transfected with peroxisome proliferator activated receptor (PPAR) construct and luciferase reporter vector. […] The response was measured in relative light units (RLUs).
In general terms: Reporter assays use an easily measured gene product as a stand-in for the process of interest.

The test system of test [2] is retinoic acid response element (RARE) construct. Kind of test: RARE reporter assay in stably transfected human kidney cells. It counts as cell-based. To be noted: oleic acid about 0, 25, 50, 100, 200 μM, FIG. 3. As to the method:
Human kidney cells were stably transfected with a retinoic acid response element (RARE) construct. The transfected cells were exposed to increasing amounts of retinoic acid (from about 0.005 μM to about 10 μM) in the presence of increasing amounts of oleic acid (about 0 μM, about 25 μM, about 50 μM, about 100 μM, and about 200 μM), and the response was measured in relative light units (RLUs).

SMILES strings stand for the structures.

Regarding `CCCCCCCC/C=C\CCCCCCCC(=O)O` [oleic acid], the “response (RLUs) of PPAR-transfected cells” value in test [1] is “responded in a dose dependent manner”. In test [2], the “effect of the fatty acid on retinoic acid activation of the retinoic acid receptor” value is “did not affect retinoic acid activation of the retinoic acid receptor”.

(Values after US20150051296A1, “USE OF FATTY ACID TO REDUCE SKIN IRRITATION ASSOCIATED WITH RETINOID THERAPY” (Access Business Group Internaional LLC, priority 2013, published 2015).)
